Experimental data as given in patent publication US12187773B2, “Modified GIP peptide analogues” (Antag Therapeutics ApS, priority 2018, dated 2025).
*1 amine or outer side, *2 acyl side, *3 side chain or, on linkers, in order; H or OH if unused. Where a SMILES comes first, the peptide text is derived from it. Side-chain parts run from the residue outwards. The star is where a group is joined. C16 diacid = O=C(O)CCCCCCCCCCCCCCC(=O)*; γGlu = O=C(O)[C@H](CCC(=O)[*:2])N[*:1]; AEEA = NCCOCCOCC(=O)O

Assays:
Assay type in all cases: cell-based
[1] = target: T1, glucagon receptor (GcgR) (Homo sapiens, UniProt P47871); experiment: cAMP assay - selectivity, antagonism at glucagon receptor; settings: Table 3A; COS-7 cells; agonist glucagon at 50-80% of maximal cAMP
T1 construct: expressed in transfected cells; host or cells: COS-7 (transient)
Protocol: (§1) Transient transfected COS-7 cells expressing the either of the GLP1 receptor (GLP1R), GLP2 receptor (GLP2R), glucagon receptor (GcgR) or secretin receptor (SCTR) were seeded in white 96-well plates with a density of 3.5*10^4/well. The day after, the cells were washed twice with Hepes buffered saline (HBS) buffer and incubated with HBS and 1 mM 3-isobutyl-1-methylxanthine (IBMX) for 30 min at 37° C. To test for agonistic properties, ligands were added and incubated for 30 min at 37° C. In order to test for antagonistic properties, the cells were preincubated with the antagonists for 10 min prior to the addition the natural agonist for the expressed receptor (GLP1 for GLP1R expressing cells, GLP2 for GLP2R expressing cells, glucagon for the GcgR and secretin for the SCTR) and subsequent incubated for 20 additional min. […] The HitHunter™ cAMP XS assay (DiscoveRx) was carried out according to the manufacturer's instructions.

[2] = target: T2, human GIP receptor (Homo sapiens, UniProt P48546); experiment: cAMP antagonism (CisBio cAMP Dynamic 2 HTRF assay); parameters: pCMV-Script vector
T2 sequence (P48546 22-466): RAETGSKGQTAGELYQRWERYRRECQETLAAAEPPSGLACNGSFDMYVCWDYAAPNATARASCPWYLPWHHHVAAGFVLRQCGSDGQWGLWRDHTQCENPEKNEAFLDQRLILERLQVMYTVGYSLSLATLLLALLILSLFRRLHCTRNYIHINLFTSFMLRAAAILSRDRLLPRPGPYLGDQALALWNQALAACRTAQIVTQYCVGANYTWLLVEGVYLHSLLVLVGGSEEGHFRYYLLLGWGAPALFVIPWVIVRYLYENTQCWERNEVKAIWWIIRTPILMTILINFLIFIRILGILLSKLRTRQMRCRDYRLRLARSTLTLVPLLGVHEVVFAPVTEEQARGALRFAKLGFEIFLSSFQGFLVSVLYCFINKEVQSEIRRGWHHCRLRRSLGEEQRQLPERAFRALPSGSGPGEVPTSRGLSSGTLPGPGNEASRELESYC
Outline: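 Four-parameter fits of cAMP dose-response gave pIC50. cAMP fall was quantified by HTRF competition, ratio 665/620 nm after 60 min at room temperature, against a cAMP standard curve.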

[3] = target: T3, GLP1 receptor (GLP1R) (Homo sapiens, UniProt P43220); experiment: cAMP assay - selectivity, antagonism at GLP1 receptor; settings: Table 3A; for GLP-1R, Antagonism, %inhib: COS-7 cells; for GLP-1R, Antagonism, index: selectivity index versus GIPR
T3 construct: expressed in transfected cells; host or cells: COS-7 (transient)
Protocol: as §1

[4] = target: T4, secretin receptor (SCTR) (Homo sapiens, UniProt P47872); experiment: cAMP assay - selectivity, antagonism at secretin receptor; settings: Table 3B; COS-7 cells; agonist secretin
T4 construct: expressed in transfected cells; host or cells: COS-7 (transient)
Protocol: as §1

[5] = target: T2, human GIP receptor; experiment: cAMP agonism (CisBio cAMP Dynamic 2 HTRF assay); settings: HEK293, read-out: cAMP agonism, % Efficacy, Table 1C, HEK-293 cells
Protocol: To test for agonistic properties at the GIP receptor, compounds were diluted and added to cells as described above and incubated for 30 min at 37° C. The resulting increase in intracellular cAMP was determined using the CisBio cAMP Dynamic 2 HTRF Assay Kit as described above.

[6] = target: T5, GLP2 receptor (GLP2R) (Homo sapiens, UniProt O95838); experiment: cAMP assay - selectivity, antagonism at GLP2 receptor; settings: Table 3B; COS-7 cells; agonist GLP2
T5 construct: expressed in transfected cells; host or cells: COS-7 (transient)
T5 sequence (O95838 1-553): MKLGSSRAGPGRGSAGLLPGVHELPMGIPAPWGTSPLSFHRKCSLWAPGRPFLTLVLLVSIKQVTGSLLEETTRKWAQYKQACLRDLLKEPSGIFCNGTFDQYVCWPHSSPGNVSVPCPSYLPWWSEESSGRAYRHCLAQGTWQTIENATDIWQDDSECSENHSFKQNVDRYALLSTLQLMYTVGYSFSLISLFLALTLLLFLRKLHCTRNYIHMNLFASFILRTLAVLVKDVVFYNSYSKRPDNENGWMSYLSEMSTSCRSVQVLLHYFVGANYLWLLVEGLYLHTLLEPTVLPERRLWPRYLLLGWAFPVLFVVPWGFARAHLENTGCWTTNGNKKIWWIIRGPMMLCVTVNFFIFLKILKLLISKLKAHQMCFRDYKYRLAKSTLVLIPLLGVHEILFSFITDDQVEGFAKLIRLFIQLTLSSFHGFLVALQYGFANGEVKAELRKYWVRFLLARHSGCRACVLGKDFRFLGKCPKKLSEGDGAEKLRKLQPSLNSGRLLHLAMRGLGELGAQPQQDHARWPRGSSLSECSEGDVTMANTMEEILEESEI
Protocol: as §1

[7] = target: T2, human GIP receptor; experiment: cAMP accumulation, antagonism (DiscoveRx HitHunter cAMP XS assay); parameters: host or cells: COS-7 (transient, calcium phosphate; pCMV-Script vector)
Outline: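 Transiently transfected COS-7 cells expressing human GIP receptor, pretreated with 1 mM IBMX in HBS 30 min at 37 °C. Agonism: ligand 30 min at 37 °C; antagonism: 10 min antagonist preincubation, then GIP at 50-80% maximal response for 20 min. cAMP measured by HitHunter cAMP XS.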

[8] = target: T2, human GIP receptor; experiment: cAMP accumulation, agonism (DiscoveRx HitHunter cAMP XS assay); parameters: host or cells: COS-7 (transient, calcium phosphate; pCMV-Script vector); settings: COS-7, read-out: cAMP agonism, Emax
Outline: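 cAMP accumulation measured by HitHunter cAMP XS in COS-7 cells transiently expressing human GIP receptor, after 30 min in HBS with 1 mM IBMX at 37 °C. Antagonists preincubated 10 min before GIP giving 50-80% of maximum, then 20 min more; agonist mode used 30 min ligand exposure.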

[9] = GIPR, Antagonism, nM, Table 3C, CisBio assay
[10] = Table 1C, CisBio, HEK-293 cells
[11] = cAMP antagonism, nM (IC50), Table 1C, CisBio, HEK-293 cells, agonist GIP1-42 at EC50

T3 sequence (P43220 24-463, species assumed): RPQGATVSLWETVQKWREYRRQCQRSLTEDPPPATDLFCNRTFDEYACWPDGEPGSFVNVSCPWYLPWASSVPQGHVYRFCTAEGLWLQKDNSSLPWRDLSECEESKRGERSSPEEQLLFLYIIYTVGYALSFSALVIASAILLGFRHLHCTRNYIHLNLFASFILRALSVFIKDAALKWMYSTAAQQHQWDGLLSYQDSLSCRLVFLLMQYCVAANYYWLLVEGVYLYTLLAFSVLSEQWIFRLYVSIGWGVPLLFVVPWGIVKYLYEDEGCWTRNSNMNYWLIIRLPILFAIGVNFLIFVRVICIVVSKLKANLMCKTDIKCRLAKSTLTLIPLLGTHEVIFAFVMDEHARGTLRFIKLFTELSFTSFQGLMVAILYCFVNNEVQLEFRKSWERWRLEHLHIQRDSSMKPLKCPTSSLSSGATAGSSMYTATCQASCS
T1 sequence (P47871 26-477, species assumed): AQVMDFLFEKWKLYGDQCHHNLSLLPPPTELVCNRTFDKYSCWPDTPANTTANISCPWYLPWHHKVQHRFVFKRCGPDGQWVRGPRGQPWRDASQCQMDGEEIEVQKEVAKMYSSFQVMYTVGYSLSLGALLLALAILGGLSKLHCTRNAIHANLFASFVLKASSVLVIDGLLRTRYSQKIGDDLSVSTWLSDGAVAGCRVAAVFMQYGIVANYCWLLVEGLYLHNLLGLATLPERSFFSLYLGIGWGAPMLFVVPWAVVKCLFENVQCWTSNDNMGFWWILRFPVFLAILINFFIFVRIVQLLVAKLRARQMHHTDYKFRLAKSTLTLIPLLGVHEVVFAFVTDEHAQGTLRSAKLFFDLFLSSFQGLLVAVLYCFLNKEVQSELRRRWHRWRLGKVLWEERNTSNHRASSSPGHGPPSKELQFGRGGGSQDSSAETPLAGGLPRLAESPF
T4 sequence (P47872 23-440, species assumed): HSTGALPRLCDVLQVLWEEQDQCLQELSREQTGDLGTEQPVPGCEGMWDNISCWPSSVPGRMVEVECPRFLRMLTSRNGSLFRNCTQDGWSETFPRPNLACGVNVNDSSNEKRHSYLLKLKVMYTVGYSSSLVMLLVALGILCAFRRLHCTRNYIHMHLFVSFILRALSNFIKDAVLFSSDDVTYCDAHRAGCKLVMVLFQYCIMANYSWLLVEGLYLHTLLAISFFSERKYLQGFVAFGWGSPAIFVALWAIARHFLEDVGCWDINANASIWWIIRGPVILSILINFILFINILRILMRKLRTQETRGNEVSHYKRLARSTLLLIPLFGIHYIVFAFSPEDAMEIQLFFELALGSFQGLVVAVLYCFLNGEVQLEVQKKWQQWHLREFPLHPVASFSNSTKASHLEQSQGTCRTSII

In the case of `CC[C@H](C)[C@H](NC(=O)[C@H](CO)NC(=O)[C@H](Cc1ccc(O)cc1)NC(=O)[C@H](CC(=O)O)NC(=O)[C@H](CO)NC(=O)[C@@H](NC(=O)[C@H](Cc1ccccc1)NC(=O)[C@@H](NC(=O)CNC(=O)[C@@H](N)CO)[C@@H](C)O)[C@@H](C)CC)C(=O)N[C@@H](C)C(=O)N[C@@H](CCSC)C(=O)N[C@@H](CC(=O)O)C(=O)N[C@@H](CCCNC(=N)N)C(=O)N[C@H](C(=O)N[C@@H](CCCCNC(=O)COCCOCCNC(=O)COCCOCCNC(=O)CC[C@H](NC(=O)CCCCCCCCCCCCCCC(=O)O)C(=O)O)C(=O)N[C@@H](CCC(N)=O)C(=O)N[C@@H](CCC(N)=O)C(=O)N[C@@H](CC(=O)O)C(=O)N[C@@H](Cc1ccccc1)C(=O)N[C@H](C(=O)N[C@@H](CC(N)=O)C(=O)N[C@@H](Cc1c[nH]c2ccccc12)C(=O)N[C@@H](CC(C)C)C(=O)N[C@@H](CC(C)C)C(=O)N[C@@H](C)C(=O)N[C@@H](CCC(N)=O)C(=O)N[C@@H](CCCNC(=N)N)C(=O)O)C(C)C)[C@@H](C)CC` [AT277] (H-SGTFISDYSIAMDRIK([AEEA-AEEA-γGlu-C16 diacid])QQDFVNWLLAQR-OH; N-terminus assumed), the “Glucagon R, Antagonism, nM” value [1] is reported as “No antagonism”, the IC50 [2, 9] is reported as 31.6 nM and the “cAMP antagonism, % inhib” value [2, 10] is reported as 84%. The “GIPR, Antagonism, % inhib” value ([2]; Table 3C, CisBio assay) was 84%, the IC50 [2, 11] was 31.6 nM and the “GLP-1R, Antagonism, %inhib” value [3] was 68%. For the same compound, the “GLP-1R, Antagonism, index” value [3] was 561, the “Secretin R, Antagonism” value [4] was “No antagonism” and the Emax [5] was 8%. For the same compound, the “GLP-2R, Antagonism” value [6] was “No antagonism”, the IC50 ([7]; cAMP antagonism, nM (IC50), Table 1B, DiscoveRx, transiently transfected COS-7 cells) was 16 nM and the Emax [8] was 9%.

For `CC[C@H](C)[C@H](NC(=O)[C@H](CO)NC(=O)[C@H](Cc1ccc(O)cc1)NC(=O)[C@H](CC(=O)O)NC(=O)[C@H](CO)NC(=O)[C@@H](NC(=O)[C@@H](N)Cc1ccccc1)[C@@H](C)CC)C(=O)N[C@@H](C)C(=O)N[C@@H](CCSC)C(=O)N[C@@H](CC(=O)O)C(=O)N[C@@H](CCCCN)C(=O)N[C@H](C(=O)N[C@@H](CCCCNC(=O)CCCCCCCCCCCCCCC(=O)O)C(=O)N[C@@H](CCC(N)=O)C(=O)N[C@@H](CCC(N)=O)C(=O)N[C@@H](CC(=O)O)C(=O)N[C@@H](Cc1ccccc1)C(=O)N[C@H](C(=O)N[C@@H](CC(N)=O)C(=O)N[C@@H](Cc1c[nH]c2ccccc12)C(=O)N[C@@H](CC(C)C)C(=O)N[C@@H](CC(C)C)C(=O)N[C@@H](C)C(=O)N[C@@H](CCC(N)=O)C(=O)N[C@@H](CCCCN)C(N)=O)C(C)C)[C@@H](C)CC` [AT353] (H-FISDYSIAMDKIK(C16 diacid)QQDFVNWLLAQK-NH2; N-terminus assumed), the “Glucagon R, Antagonism, nM” value [1] was “No antagonism”, the IC50 [2, 9] was 25.1 nM and the “cAMP antagonism, % inhib” value [2, 10] was 90%. The “GIPR, Antagonism, % inhib” value ([2]; Table 3C, CisBio assay) was 90%, the IC50 [2, 11] was 25.1 nM and the “GLP-1R, Antagonism, %inhib” value [3] was 43%. For the same compound, the “GLP-1R, Antagonism, index” value [3] was 44, the “Secretin R, Antagonism” value [4] was “No antagonism” and the Emax [5] was 0%. The “GLP-2R, Antagonism” value [6] was “No antagonism”, the IC50 ([7]; GIPR, Antagonism, nM, Table 3A/3B, DiscoveRx, COS-7 cells) was 9 nM and the IC50 ([7]; IC50-value (GIPR antagonism), Examples 1 and 2, values of Tables 1B and 2) was 9 nM. For the same compound, the “cAMP antagonism, % inhib” value ([7]; Table 2, truncated GIP antagonists) was 100.0%, the “GIPR, Antagonism, % inhib” value ([7]; Table 3A/3B, DiscoveRx, COS-7 cells) was 100.0% and the IC50 ([7]; cAMP antagonism, nM (IC50), Table 2, truncated GIP antagonists) was 9 nM.
